Converted amounts (≈) assume the structure as drawn. Where two headings read alike, the source gives them in different places.

In data set [1] the test system is MDR-TB and XDR-TB strains. As to the kind of experiment: microbe, parasite or virus in culture. Type of data set: cell-based. Conditions: Mycobacterium tuberculosis.
For a further data set, the system named is Mtb H37Rv. As to the kind of experiment: Minimum inhibitory concentration, broth microdilution, whole-cell activity. Type of data set: cell-based, Mycobacterium tuberculosis. The following applies: for MIC: Mycobacterium tuberculosis, H37RV; for MIC GAST: Mtb H37Rv, GAST medium, MIC = >99% inhibition of cell growth.
In the next data set the target is FACL19 (Mycobacterium tuberculosis, UniProt P9WQ51). The data set can be described thus: Coupled continuous enzyme kinetic assay. The data set is classed as biochemical. Conditions: for Ki^app FACL19: apparent Ki, Morrison equation, 250 μM dodecanoic acid.
The next data set concerns the target FAAL28 (Mycobacterium tuberculosis, UniProt P9WQ59). As to the kind of experiment: Coupled continuous enzyme kinetic assay. Type of data set: biochemical. Conditions: for Ki^app FAAL28: apparent Ki, Morrison equation, 33 μM tetradecanoic acid.
Another data set concerns Mtb. The following applies: cited from earlier work.
The subject of the next data set is Vero cells. As to the kind of experiment: Cytotoxicity, MTT assay. Conditions: read-out: Cytotox IC50, Vero monkey cells, 72 h. A general note: Tetrazolium dyes change colour on reduction, which living cells bring about.
Setting [2] is: read-out: MICs against MDR-TB and XDR-TB panel in both media.
[3] abbreviates: read-out: MIC 7H9, Mtb H37Rv, 7H9 medium.
[4] abbreviates: read-out: MIC 7H9/palmitate, Mtb H37Rv, 7H9/palmitate medium.
[5] abbreviates: read-out: MICs against MDR and XDR Mtb panel in 7H9 medium.

FACL19, sequence (P9WQ51 whole entry): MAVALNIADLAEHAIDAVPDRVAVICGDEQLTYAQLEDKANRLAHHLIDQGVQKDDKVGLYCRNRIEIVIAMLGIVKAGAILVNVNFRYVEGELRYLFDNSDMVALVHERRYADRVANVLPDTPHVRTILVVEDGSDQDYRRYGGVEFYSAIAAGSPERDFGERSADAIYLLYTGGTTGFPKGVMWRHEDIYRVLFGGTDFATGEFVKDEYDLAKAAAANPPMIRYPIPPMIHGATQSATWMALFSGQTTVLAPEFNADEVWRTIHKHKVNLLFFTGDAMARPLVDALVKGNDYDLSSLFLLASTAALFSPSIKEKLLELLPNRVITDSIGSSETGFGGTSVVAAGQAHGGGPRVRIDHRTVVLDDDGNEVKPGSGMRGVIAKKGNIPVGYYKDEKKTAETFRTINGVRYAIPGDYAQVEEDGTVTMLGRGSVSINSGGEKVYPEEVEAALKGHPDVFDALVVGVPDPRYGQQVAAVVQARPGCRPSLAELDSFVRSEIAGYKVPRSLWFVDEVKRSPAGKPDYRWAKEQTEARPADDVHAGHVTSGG
FAAL28, sequence (P9WQ59 whole entry): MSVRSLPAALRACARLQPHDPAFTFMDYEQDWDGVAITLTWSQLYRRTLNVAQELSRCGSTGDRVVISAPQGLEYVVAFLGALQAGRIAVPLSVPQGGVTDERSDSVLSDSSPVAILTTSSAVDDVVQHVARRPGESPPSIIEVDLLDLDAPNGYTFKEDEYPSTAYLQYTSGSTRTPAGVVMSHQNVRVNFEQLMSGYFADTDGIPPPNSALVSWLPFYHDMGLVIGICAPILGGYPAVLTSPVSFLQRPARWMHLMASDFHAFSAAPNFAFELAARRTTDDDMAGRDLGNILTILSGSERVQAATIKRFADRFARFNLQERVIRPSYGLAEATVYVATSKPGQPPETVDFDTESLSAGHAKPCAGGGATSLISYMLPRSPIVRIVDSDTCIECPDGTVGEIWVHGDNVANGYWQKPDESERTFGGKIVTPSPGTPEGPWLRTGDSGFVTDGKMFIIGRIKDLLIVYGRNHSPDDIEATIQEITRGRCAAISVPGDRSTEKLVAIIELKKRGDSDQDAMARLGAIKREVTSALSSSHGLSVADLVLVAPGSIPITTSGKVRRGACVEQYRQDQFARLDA

On to `CCCCCCCCC/C=C/C(=O)NS(=O)(=O)OC[C@H]1O[C@@H](n2cnc3c(N)ncnc32)[C@H](O)[C@@H]1O` [Compound 23, 5′-O-{N-[(E)-Dodec-2-enoyl]sulfamoyl}adenosine], for which the MIC in data set [1] (setting [2]) fell in the range of 3.13 to 12.5 µM (≈ 1.65 to 6.58 µg/mL).

For orientation: Ki means a dissociation constant, usually derived from enzyme kinetics or from competition with a known ligand. Take `CCCCCCCCCCC(C)(C)C(=O)NS(=O)(=O)OC[C@H]1O[C@@H](n2cnc3c(N)ncnc32)[C@H](O)[C@@H]1O` [Compound 35, 5′-O-[N-(2,2-Dimethyldodecanoyl)sulfamoyl]adenosine]: the MIC with Mtb H37Rv (setting [3]) and in the data set on Mtb H37Rv (setting [4]) was greater than 100 µM each time. The Ki on FACL19 was 54.7 µM; at FAAL28, greater than 100 µM.

As to `CCCCCCCCC[C@@H]1C[C@@H]1C(=O)NS(=O)(=O)OC[C@H]1O[C@@H](n2cnc3c(N)ncnc32)[C@H](O)[C@@H]1O` [Compound 26, 5′-O-{N-[(1S,2R)-2-Nonylcyclopropanecarbonyl]sulfamoyl} adenosine], the “Ki^app FAAL28” value on FAAL28 was “weak inhibition”.

In the case of `NCCCCCCCCCCCC(=O)NS(=O)(=O)OC[C@H]1O[C@@H](n2cnc3c(N)ncnc32)[C@H](O)[C@@H]1O` [Compound 29, 5′-O-[N-(12-Aminododecanoyl)sulfamoyl]adenosine], the MIC in the data set on Mtb H37Rv (setting [4]) lay within 12.5 to 25 µM (≈ 6.8 to 13.6 µg/mL).

As to `CCCCCCCCCCCC(=O)NS(=O)(=O)OC[C@H]1O[C@@H](n2cnc3c(N)ncnc32)[C@H](O)[C@@H]1O` [Compound 9, 5′-O-[N-(Dodecanoyl)sulfamoyl]adenosine], the “MIC against Mtb” value in the data set on Mtb is 100 µM (≈ 52.9 µg/mL). For the same compound, the “MIC GAST” value with Mtb H37Rv was 0.19 to 0.39 µM. In addition, the MIC in data set [1] (setting [5]) was 3.13 to 12.5 µM (≈ 1.65 to 6.61 µg/mL).

Take `CCCCCCCCCC[C@H](C)C(=O)NS(=O)(=O)OC[C@H]1O[C@@H](n2cnc3c(N)ncnc32)[C@H](O)[C@@H]1O` [Compound 34, 5′-O-{N-[(S)-2-Methylodecanoyl]sulfamoyl}adenosine]: the MIC in the data set with Mtb H37Rv (setting [3]) and with Mtb H37Rv (setting [4]) was greater than 100 µM each time. Besides, the Ki at FACL19 and at FAAL28 was greater than 100 µM throughout.

On to `CCCCCCCCCCCCCC(=O)NS(=O)(=O)OC[C@H]1O[C@@H](n2cnc3c(N)ncnc32)[C@H](O)[C@@H]1O` [Compound 17, 5′-O-[N-(Tetradecanoyl)sulfamoyl]adenosine], for which the MIC in data set [1] (setting [5]) is 3.13 to 12.5 µM (≈ 1.74 to 6.96 µg/mL).

With `Nc1ncnc2c1ncn2[C@@H]1O[C@H](CNS(=O)(=O)OCCCCCCCCCCCOc2ccccc2)[C@@H](O)[C@H]1O` [Compound 93, 5′-Deoxy-5′-{[(11-phenoxyundecyloxy)sulfonyl]amino}adenosine], at FAAL28, the “Ki^app FAAL28” value is recorded as “ablated biochemical inhibition”.

For the compound `Nc1ncnc2c1ncn2[C@@H]1O[C@H](COS(=O)(=O)NC(=O)CCCCCCCCCCC(=O)O)[C@@H](O)[C@H]1O` [Compound 31, 5′-O-[N-(11-Carboxyundecanoyl)sulfamoyl]adenosine], the MIC in the data set on Mtb H37Rv (setting [3]) and in the data set on Mtb H37Rv (setting [4]) was greater than 100 µM in each case. The inhibitory constant (Ki) at FACL19 and at FAAL28 was greater than 100 µM each time.

`CCCCCCCCCC[C@@H](C)C(=O)NS(=O)(=O)OC[C@H]1O[C@@H](n2cnc3c(N)ncnc32)[C@H](O)[C@@H]1O` [Compound 33, 5′-O-{N-[(R)-2-Methyldodecanoyl]sulfamoyl}adenosine]: the MIC with Mtb H37Rv (setting [3]) and in the data set with Mtb H37Rv (setting [4]) was greater than 100 µM each time. The Ki on FACL19 and at FAAL28 was greater than 100 µM throughout.

With `CCCCCCCCCOCC(=O)NS(=O)(=O)OC[C@H]1O[C@@H](n2cnc3c(N)ncnc32)[C@H](O)[C@@H]1O` [Compound 36, 5′-O-[N-2-(Nonyloxy)acetylsulfamoyl]adenosine], the “MIC GAST” value against Mtb H37Rv is 0.098 to 0.19 µM. The MIC in the data set with Mtb H37Rv (setting [4]) is 25 to 50 µM (≈ 13.3 to 26.5 µg/mL).

For `Nc1ncnc2c1ncn2[C@@H]1O[C@H](COS(=O)(=O)NCCCCCCCCCCCOc2ccccc2)[C@@H](O)[C@H]1O` [Compound 89, 5′-O-[N-(11-Phenoxyundecyl)sulfamoyl]adenosine], the “Ki^app FAAL28” value at FAAL28 was “ablated biochemical inhibition”.

As for `[N-]=[N+]=NCCCCCCCCCCCC(=O)NS(=O)(=O)OC[C@H]1O[C@@H](n2cnc3c(N)ncnc32)[C@H](O)[C@@H]1O` [Compound 28, 5′-O-[N-(12-Azidododecanoyl)sulfamoyl]adenosine], in the data set on Mtb H37Rv, the “MIC GAST” value is 0.098 to 3.13 µM. The MIC with Mtb H37Rv (setting [3]) fell in the range of 12.5 to 25 µM (≈ 7.12 to 14.2 µg/mL).

As to `Nc1ncnc2c1ncn2[C@@H]1O[C@H](COS(=O)(=O)NC(=O)CCCCCCCCCOc2ccccc2)[C@@H](O)[C@H]1O` [Compound 38, 5′-O-[N-(10-Phenoxydecanoyl)sulfamoyl]adenosine], at FAAL28, the “fold decrease in potency for FAAL28 relative to 32” value is given as 10 fold.

What is called IC50 is the concentration that gives 50% inhibition. Turning to `CCCCCCCCCCCCCCCCCCCC(=O)NS(=O)(=O)OC[C@H]1O[C@@H](n2cnc3c(N)ncnc32)[C@H](O)[C@@H]1O` [Compound 20, 5′-O-[N-(Icosanoyl)sulfamoyl]adenosine], the IC50 with Vero cells came to 100 nM.

For `C[C@H](CCC(=O)NS(=O)(=O)OC[C@H]1O[C@@H](n2cnc3c(N)ncnc32)[C@H](O)[C@@H]1O)[C@H]1CC[C@H]2[C@@H]3CC[C@@H]4C[C@H](O)CC[C@]4(C)[C@H]3CC[C@]12C` [Compound 11, reference compound], in the data set on Mtb, the “MIC against Mtb” value was 50 µM (≈ 35.2 µg/mL).

Consider `Nc1ncnc2c1ncn2[C@@H]1O[C@H](CNS(=O)(=O)NC(=O)CCCCCCCCCCOc2ccccc2)[C@@H](O)[C@H]1O` [Compound 83, 5′-deoxy-5′-{N-[(11-Phenoxyundecanoyl)sulfamoyl]amino} adenosine], for which the “Ki^app FACL19” value at FACL19 was “no inhibition”. Moreover, the “fold decrease in potency for FAAL28 relative to 32” value at FAAL28 came to 4 fold.

Consider `Nc1ncnc2c1ncn2[C@@H]1O[C@H](COS(=O)(=O)NC(=O)CCCCCCCCCCOc2ccccc2)[C@@H](O)[C@H]1O` [Compound 32, 5′-O-[N-(11-Phenoxyundecanoyl)sulfamoyl]adenosine], for which the “Ki^app FACL19” value on FACL19 is “completely inactive”. Moreover, on FAAL28 (ratio of apparent Ki values), the “selectivity for FAAL28 over FACL19” value is listed as “greater than 142 fold”. For the same compound, in data set [1] (setting [2]), the MIC lay within 3.13 to 12.5 µM (≈ 1.9 to 7.58 µg/mL).

Take `CCCCC/C=C\CCCC(=O)NS(=O)(=O)OC[C@H]1O[C@@H](n2cnc3c(N)ncnc32)[C@H](O)[C@@H]1O` [Compound 25, 5′-O-{N-[(Z)-Undec-5-enoyl]sulfamoyl}adenosine]: the MIC in the data set with Mtb H37Rv (setting [3]) and in the data set on Mtb H37Rv (setting [4]) was 100 µM (≈ 51.3 µg/mL) in each case. Besides, the Ki at FACL19 and at FAAL28 was greater than 100 µM in each case.

Regarding `COC(=O)CCCCCCCCCCC(=O)NS(=O)(=O)OC[C@H]1O[C@@H](n2cnc3c(N)ncnc32)[C@H](O)[C@@H]1O` [Compound 30, 5′-O-[N-(12-Methoxy-12-oxododecanoyl)sulfamoyl]adenosine], the “MIC GAST” value in the data set on Mtb H37Rv came to 3.13 µM (≈ 1.79 µg/mL). For the same compound, the MIC with Mtb H37Rv (setting [3]) was 100 µM (≈ 57.3 µg/mL); in the data set with Mtb H37Rv (setting [4]) it was greater than 100 µM. Further, the inhibition constant (Ki) on FACL19 and at FAAL28 was greater than 100 µM in each case.

For `CCCCCCCCCCCCCCCC(=O)NS(=O)(=O)OC[C@H]1O[C@@H](n2cnc3c(N)ncnc32)[C@H](O)[C@@H]1O` [Compound 18, 5′-O-[N-(Palmitoyl)sulfamoyl]adenosine], the inhibition constant Ki on FACL19 worked out at 3.2 µM.
